Results reported in ChEMBL document CHEMBL1201862, “PubChem BioAssay data set” (2004).
Each block holds one molecule with its values, some of them ahead of it. The source made the active and inactive calls.

Assays:
[1] = target: Melanocortin receptor 4 (Homo sapiens, UniProt P32245); type: functional, cell-based;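 further: Cell-based assay with luminescence read-out, confirmatory dose-response testing for agonist activity of biased ligands at MC4R; human U2OS cells with tagged receptor and beta-arrestin; potency of agonists that increase receptor coupling to beta-arrestin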
[2] = target: T1, Fatty acid synthase (Homo sapiens, UniProt P49327); assay: FAS thioesterase domain inhibitors, dose response, biochemical, kinetic fluorescence intensity (AID 624326); type: functional;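 further: rate of fluorescence rise from hydrolysis of a fluorogenic O-methyl fluorescein ester substrate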
[3] = target: T1, Fatty acid synthase; assay: FAS thioesterase domain inhibitors, dose response, biochemical, endpoint fluorescence intensity, uHTS hits (AID 624327); type: functional;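 further: fluorescence from hydrolysis of an O-methyl fluorescein acyl ester substrate by the enzyme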
[4] = target: Prothrombin (Homo sapiens, UniProt P00734); assay: Thrombin 1536 HTS Dose Response Confirmation. [Related pubchem assays: 1046 (Thrombin 1536 HTS; hits were confirmed in this assay)]; type: functional
[5] = target: Estrogen receptor beta (Homo sapiens, UniProt Q92731);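 further: recombinant ER-beta bound to coactivator SRC1 peptide in presence of estradiol agonist; inhibitors block coactivator peptide binding and lower the FRET signal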
[6] = cells; type: functional, cell-based
[7] = target: T2, Trace amine-associated receptor 1 (Homo sapiens, UniProt Q96RJ0); assay: Fluorescence-based cell-based high throughput dose response assay to identify agonists of the human trace amine associated receptor 1 (TAAR1).; type: functional
T2 sequence (Q96RJ0 whole entry): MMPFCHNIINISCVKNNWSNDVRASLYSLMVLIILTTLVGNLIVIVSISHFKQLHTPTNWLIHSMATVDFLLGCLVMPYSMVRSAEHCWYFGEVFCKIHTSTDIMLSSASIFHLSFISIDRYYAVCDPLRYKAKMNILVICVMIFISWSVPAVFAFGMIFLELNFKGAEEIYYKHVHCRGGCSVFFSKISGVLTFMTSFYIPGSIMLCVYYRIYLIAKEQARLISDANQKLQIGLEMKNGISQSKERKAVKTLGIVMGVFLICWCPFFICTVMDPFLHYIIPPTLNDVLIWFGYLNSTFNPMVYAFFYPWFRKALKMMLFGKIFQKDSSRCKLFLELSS

[8] = target: T2, Trace amine-associated receptor 1; assay: Counterscreen for agonists of the human trace amine associated receptor 1 (hTAAR1): Fluorescence-based cell-based high throughput dose response assay to identify hTAAR1 agonist that also desensitize TAAR1 receptor response.; type: functional
[9] = cells; type: functional, cell-based; remark: listed apart in the source
[10] = target: T3, Rac GTPase-activating protein 1 (Homo sapiens, UniProt Q9H0H5); assay: MgcRacGAP GTPase-activating activity inhibitors, confirmation, biochemical, ADP Hunter fluorescence, primary and confirmatory (AID 624330); type: functional
T3 sequence (Q9H0H5 whole entry): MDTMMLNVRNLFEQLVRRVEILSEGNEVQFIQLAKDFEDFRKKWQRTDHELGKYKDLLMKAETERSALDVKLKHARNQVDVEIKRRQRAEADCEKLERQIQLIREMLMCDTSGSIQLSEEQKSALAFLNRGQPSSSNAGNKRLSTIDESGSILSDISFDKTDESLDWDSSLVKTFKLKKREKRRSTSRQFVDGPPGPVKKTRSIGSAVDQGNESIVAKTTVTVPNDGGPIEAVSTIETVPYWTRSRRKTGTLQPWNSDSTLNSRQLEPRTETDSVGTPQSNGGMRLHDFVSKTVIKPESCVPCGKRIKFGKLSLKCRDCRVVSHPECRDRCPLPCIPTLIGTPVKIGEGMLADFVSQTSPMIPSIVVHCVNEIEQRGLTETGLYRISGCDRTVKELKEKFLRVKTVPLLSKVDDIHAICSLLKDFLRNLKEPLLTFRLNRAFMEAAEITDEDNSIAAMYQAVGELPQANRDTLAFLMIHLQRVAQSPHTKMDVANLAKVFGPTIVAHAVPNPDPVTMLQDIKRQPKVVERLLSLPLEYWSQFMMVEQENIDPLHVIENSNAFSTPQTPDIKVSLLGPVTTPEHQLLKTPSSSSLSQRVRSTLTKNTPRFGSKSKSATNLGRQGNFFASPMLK

[11] = target: T4, Sentrin-specific protease 6 (Homo sapiens, UniProt Q9GZR1); assay: SAR Analysis of small molecule inhibitors of Sentrin-specific protease 6 (SENP6) using a Luminescent assay. [Related pubchem assays (depositor defined):AID2582, AID2599]; type: functional
T4 sequence (Q9GZR1 whole entry): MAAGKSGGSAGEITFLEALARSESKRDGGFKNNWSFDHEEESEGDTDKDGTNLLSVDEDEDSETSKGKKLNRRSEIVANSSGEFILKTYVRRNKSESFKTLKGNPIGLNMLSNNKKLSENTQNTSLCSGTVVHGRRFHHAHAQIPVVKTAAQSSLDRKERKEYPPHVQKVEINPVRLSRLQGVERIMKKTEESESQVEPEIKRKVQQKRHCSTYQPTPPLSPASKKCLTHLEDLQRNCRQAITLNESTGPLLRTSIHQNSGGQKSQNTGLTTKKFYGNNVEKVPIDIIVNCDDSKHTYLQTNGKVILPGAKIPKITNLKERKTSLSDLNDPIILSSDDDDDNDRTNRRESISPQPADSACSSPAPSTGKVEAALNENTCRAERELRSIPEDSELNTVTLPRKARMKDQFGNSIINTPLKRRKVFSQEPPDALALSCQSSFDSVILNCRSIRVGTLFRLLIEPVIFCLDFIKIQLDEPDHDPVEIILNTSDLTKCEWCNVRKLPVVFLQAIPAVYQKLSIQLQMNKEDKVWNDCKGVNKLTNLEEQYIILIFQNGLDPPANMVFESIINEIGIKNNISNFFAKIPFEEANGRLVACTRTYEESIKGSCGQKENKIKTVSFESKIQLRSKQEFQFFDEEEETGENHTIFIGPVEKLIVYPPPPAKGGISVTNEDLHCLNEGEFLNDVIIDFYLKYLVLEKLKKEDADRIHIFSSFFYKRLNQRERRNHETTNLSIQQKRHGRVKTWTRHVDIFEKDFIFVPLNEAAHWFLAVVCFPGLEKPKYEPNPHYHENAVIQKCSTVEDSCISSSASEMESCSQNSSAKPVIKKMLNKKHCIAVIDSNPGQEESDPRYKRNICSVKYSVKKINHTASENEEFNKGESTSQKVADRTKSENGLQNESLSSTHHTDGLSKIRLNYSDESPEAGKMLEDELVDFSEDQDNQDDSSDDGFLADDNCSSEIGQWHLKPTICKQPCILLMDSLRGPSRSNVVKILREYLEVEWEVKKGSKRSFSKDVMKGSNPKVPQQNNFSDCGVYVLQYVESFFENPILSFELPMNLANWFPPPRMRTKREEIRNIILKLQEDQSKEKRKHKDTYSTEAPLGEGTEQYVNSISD

[12] = target: T5, Sentrin-specific protease 8 (Homo sapiens, UniProt Q96LD8); assay: SENP8 protease inhibitors, SAR follow-up, biochemical, luminescence (AID 504501); type: functional
T5 sequence (Q96LD8 whole entry): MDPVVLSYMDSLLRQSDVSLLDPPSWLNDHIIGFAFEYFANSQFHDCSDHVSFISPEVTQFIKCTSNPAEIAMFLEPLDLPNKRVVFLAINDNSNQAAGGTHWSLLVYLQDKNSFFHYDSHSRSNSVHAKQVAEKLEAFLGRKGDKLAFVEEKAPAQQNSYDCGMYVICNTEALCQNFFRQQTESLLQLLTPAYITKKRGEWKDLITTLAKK

[13] = target: T6, Sentrin-specific protease 7 (Homo sapiens, UniProt Q9BQF6); assay: SENP7 protease inhibitors, SAR follow-up, biochemical, luminescence (AID 504497); type: functional
T6 sequence (Q9BQF6 whole entry): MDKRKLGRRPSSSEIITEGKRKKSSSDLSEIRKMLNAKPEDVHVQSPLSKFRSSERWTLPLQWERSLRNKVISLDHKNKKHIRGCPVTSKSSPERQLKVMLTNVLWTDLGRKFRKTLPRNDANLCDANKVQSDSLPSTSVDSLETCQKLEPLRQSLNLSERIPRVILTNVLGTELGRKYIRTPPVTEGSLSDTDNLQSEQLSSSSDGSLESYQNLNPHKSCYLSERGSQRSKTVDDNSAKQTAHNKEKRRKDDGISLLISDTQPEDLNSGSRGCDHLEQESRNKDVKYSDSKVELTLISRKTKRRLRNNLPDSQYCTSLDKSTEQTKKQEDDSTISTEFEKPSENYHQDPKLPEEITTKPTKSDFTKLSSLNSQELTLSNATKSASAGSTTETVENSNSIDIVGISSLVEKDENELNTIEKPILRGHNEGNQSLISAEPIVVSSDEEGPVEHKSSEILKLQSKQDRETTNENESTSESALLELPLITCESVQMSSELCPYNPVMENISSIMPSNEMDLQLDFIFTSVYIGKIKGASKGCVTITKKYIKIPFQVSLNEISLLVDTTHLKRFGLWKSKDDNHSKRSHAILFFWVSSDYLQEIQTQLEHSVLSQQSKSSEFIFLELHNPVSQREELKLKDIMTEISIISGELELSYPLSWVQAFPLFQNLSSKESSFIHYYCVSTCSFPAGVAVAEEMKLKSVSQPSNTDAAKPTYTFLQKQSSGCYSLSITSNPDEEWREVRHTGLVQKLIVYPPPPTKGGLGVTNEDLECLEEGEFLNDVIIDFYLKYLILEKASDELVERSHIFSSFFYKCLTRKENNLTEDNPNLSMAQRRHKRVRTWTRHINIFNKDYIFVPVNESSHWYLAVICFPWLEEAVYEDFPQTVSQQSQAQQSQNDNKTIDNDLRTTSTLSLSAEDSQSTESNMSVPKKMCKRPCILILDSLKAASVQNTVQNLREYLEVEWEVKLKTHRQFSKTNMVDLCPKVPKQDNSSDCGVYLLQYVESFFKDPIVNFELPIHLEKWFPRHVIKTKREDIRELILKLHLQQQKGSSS

[14] = target: T7, Caspase-3 (Homo sapiens, UniProt P42574); assay: SAR Analysis of small molecule inhibitors of Sentrin-specific proteases (SENPs) using a Caspase-3 Selectivity assay. [Related pubchem assays (depositor defined):AID2540, AID2599, AID434973, AID489001]; type: functional
T7 sequence (P42574 whole entry): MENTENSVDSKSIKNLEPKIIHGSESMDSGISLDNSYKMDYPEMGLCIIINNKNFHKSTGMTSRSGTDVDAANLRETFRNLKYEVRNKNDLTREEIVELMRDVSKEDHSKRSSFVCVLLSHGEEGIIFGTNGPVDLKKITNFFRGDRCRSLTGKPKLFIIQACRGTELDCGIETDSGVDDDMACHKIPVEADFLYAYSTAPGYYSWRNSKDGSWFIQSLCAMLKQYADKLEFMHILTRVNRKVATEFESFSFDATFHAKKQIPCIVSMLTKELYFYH

Sequence of Melanocortin receptor 4 (P32245 whole entry, the tested form may be a part): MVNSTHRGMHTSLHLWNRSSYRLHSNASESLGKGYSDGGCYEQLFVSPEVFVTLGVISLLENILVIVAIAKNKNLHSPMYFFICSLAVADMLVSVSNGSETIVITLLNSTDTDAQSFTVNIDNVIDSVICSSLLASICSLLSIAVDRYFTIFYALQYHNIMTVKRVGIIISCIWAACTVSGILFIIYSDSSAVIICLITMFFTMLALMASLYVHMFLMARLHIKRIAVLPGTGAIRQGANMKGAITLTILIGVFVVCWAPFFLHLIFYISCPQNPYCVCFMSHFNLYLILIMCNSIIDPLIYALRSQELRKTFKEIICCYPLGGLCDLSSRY
T1 sequence (P49327 whole entry, the tested form may be a part): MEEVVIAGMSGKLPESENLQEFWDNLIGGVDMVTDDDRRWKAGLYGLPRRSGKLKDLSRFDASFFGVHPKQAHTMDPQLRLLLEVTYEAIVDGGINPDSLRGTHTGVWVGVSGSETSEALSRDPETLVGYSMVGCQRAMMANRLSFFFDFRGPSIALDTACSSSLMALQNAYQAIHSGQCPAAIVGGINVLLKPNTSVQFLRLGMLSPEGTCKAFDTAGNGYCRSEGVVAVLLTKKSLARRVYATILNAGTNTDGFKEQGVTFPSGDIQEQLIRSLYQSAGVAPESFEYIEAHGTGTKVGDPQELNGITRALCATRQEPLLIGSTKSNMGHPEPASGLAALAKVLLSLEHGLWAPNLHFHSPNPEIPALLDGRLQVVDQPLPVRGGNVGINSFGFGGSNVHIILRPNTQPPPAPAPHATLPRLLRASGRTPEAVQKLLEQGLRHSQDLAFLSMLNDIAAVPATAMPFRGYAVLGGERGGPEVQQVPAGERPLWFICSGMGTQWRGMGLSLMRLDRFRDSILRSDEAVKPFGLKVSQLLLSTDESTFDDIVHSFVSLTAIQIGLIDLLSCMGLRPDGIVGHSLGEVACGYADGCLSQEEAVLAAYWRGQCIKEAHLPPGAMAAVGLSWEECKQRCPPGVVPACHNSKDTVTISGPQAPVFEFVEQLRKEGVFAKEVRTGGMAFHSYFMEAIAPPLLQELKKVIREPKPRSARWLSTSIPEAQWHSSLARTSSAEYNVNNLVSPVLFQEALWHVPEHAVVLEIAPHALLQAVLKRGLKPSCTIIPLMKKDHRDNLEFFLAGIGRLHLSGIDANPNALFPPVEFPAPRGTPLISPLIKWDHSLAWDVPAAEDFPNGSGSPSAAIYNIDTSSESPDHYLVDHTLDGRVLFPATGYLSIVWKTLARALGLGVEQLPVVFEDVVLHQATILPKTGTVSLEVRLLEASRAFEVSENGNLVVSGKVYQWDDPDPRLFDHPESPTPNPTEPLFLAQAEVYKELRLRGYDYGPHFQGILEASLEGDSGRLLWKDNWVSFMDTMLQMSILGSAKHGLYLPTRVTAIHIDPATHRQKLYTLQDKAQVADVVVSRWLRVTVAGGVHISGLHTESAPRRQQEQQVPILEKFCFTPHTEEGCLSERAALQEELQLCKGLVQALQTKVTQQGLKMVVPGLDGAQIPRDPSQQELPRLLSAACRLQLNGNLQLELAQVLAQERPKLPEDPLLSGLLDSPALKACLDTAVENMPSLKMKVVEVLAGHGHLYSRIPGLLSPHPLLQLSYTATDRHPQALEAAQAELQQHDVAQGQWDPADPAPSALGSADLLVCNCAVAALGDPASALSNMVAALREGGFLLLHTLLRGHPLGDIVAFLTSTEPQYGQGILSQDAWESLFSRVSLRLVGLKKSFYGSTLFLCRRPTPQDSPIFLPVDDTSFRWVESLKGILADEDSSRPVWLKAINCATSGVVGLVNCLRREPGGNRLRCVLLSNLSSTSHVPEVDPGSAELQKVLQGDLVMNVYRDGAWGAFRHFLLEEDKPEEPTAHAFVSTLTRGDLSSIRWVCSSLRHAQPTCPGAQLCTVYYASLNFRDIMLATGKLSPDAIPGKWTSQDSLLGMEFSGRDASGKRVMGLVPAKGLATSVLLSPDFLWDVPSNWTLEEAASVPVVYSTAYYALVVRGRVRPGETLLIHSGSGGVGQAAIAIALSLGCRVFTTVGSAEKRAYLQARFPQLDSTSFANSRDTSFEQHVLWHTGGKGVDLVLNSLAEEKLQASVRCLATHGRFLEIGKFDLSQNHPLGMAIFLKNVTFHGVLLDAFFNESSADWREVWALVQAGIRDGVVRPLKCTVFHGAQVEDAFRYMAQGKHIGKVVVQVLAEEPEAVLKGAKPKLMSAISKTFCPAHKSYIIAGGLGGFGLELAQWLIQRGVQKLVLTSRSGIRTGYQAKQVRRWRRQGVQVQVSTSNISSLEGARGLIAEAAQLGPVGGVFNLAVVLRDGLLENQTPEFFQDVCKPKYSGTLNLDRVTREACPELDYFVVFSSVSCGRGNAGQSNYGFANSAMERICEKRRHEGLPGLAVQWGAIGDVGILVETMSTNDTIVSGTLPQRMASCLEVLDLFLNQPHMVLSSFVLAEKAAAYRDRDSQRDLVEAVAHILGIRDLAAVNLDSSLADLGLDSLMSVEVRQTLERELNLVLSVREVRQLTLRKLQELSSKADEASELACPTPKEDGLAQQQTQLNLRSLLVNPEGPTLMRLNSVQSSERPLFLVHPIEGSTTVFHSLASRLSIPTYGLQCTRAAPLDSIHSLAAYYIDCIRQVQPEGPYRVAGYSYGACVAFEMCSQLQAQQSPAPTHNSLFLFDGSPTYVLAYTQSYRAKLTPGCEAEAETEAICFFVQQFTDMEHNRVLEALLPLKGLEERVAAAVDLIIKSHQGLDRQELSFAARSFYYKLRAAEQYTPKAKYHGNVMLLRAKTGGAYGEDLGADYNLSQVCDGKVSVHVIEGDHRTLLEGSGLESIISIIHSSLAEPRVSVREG
Sequence of Estrogen receptor beta (Q92731 whole entry): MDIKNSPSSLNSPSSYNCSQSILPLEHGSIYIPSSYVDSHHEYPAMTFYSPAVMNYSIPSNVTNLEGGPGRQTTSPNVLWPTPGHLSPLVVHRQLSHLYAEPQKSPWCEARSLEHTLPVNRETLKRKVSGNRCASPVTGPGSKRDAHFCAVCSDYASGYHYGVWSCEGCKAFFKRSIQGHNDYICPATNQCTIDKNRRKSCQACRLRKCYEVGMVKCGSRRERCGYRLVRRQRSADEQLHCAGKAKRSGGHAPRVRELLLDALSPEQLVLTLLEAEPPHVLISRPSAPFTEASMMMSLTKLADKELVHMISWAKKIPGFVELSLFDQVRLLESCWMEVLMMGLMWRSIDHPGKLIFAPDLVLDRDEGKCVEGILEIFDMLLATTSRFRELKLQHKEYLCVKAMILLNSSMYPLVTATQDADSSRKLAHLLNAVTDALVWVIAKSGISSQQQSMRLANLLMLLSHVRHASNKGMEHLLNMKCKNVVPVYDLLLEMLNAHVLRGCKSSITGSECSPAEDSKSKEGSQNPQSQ

EC50 [1]: > 89.2 µM (inactive)
Structure (SMILES): Cc1ccccc1-c1nc(-c2ccc(NC(=O)c3ccc(Br)o3)cc2)no1

IC50 [2]: 12.1 µM (active)
IC50 [3]: 8.88 µM (active)
IC50 [4]: 0.537 µM (active)
Structure (SMILES): CCn1cc(C(=O)NCc2ccc3c(c2)OCO3)c(=O)c2cc(S(=O)(=O)N(C)C)ccc21

IC50 [5]: > 50 µM (not active)
Structure (SMILES): CCN(CC)S(=O)(=O)c1ccc(C(=O)NCc2ccc(C)cc2)cc1

Structure (SMILES): NNc1nc(Nc2ccccc2)nc(N2CCCCC2)n1
EC50 [6]: > 29.9 µM (inactive)
EC50 [7]: 3.48 µM (active)
IC50 [8]: 8.76 µM (active)
IC50 [9]: > 29.9 µM (inactive)

IC50 [10]: 108 µM (active)
IC50 [4]: 3.09 µM (active)
Structure (SMILES): CCOC(=O)c1[nH]c2ccccc2c1NC(=S)Nc1ccccc1

Structure (SMILES): O=C(COC(=O)Cc1ccccc1F)NCCc1ccccc1
EC50 [6]: > 29.9 µM (inactive)
EC50 [7]: > 9.96 µM (active)
IC50 [8]: 2.35 µM (active)
IC50 [9]: > 29.9 µM (inactive)

IC50 [4]: 0.0165 µM (active)
Structure (SMILES): CC(=O)n1nc(-c2ccccc2)nc1NCc1ccc(F)cc1

Structure (SMILES): O=C(CN1CCc2ccccc2C1)Nc1ccccc1C(F)(F)F
EC50 [6]: > 29.9 µM (inactive)
EC50 [7]: 3.55 µM (active)
IC50 [10]: 205 µM (active)
IC50 [8]: 11.1 µM (inactive)
IC50 [9]: > 29.9 µM (inactive)

IC50 [4]: > 50 µM (not active)
Structure (SMILES): CCOC(=O)CSc1nnc(NC(=O)c2cc([N+](=O)[O-])cc([N+](=O)[O-])c2)s1

IC50 [11]: > 99 µM (inactive)
IC50 [13]: > 99 µM (inactive)
IC50 [14]: > 99 µM (inactive)
Structure (SMILES): CCOC(=O)c1c(-c2ccc(Br)cc2)csc1NC(=O)C1CC1
IC50 [12]: > 99 µM (inactive)

EC50 [1]: > 89.2 µM (inactive)
Structure (SMILES): COc1ccc(CNC(=O)Nc2nc(C(N)Cc3ccc(C(F)(F)F)cc3)cs2)cc1 (centres undefined)

IC50 [11]: > 99 µM (inactive)
IC50 [13]: > 99 µM (inactive)
IC50 [14]: > 99 µM (inactive)
Structure (SMILES): CS(=O)(=O)c1ccc2nc(NC(=O)c3cccc(NS(=O)(=O)c4ccccc4)c3)sc2c1
IC50 [12]: > 99 µM (inactive)

IC50 [11]: > 99 µM (inactive)
IC50 [13]: > 99 µM (inactive)
IC50 [14]: > 99 µM (inactive)
Structure (SMILES): COc1ccc(N/N=C/c2cn(Cc3ccccc3)c3ccccc23)cc1
IC50 [12]: > 99 µM (inactive)

IC50 [11]: > 99 µM (inactive)
IC50 [13]: > 99 µM (inactive)
IC50 [14]: > 99 µM (inactive)
Structure (SMILES): Cc1ccc(S(=O)(=O)Nc2ccc3sc(NC(=O)c4ccccc4)nc3c2)cc1
IC50 [12]: > 99 µM (inactive)

EC50 [1]: 12.4 µM (inactive)
Structure (SMILES): COc1ccc(-c2cc(NC=O)c3ncc(-c4cccc(C(F)(F)F)c4)n3c2)cc1OC

EC50 [1]: > 89.2 µM (inactive)
Structure (SMILES): C/C(=N\NC(=O)COc1cccc2ccccc12)c1cccs1

Structure (SMILES): CCOC(=O)N[C@H](C(=O)N1CCC[C@H]1C(=O)NCCc1ccccc1Cl)c1ccccc1
EC50 [6]: > 29.9 µM (inactive)
EC50 [7]: 2.06 µM (active)
IC50 [8]: 6.89 µM (active)
IC50 [9]: > 29.9 µM (inactive)

Structure (SMILES): Nc1nc(-c2ccccc2)cn1/N=C/c1ccccc1
EC50 [6]: > 29.9 µM (inactive)
EC50 [7]: 1.49 µM (active)
IC50 [8]: 8.47 µM (active)
IC50 [9]: > 29.9 µM (inactive)
